Columns and labels:
Human CD4+ T cells = experiment: Sensitivity of human CD4+ T cells to BG and BCNU (expansion in culture); format: cell-based; conditions: for dose dependence of CD4 cell killing / toxicity: increasing dose
Protocol: CD14 depleted CD4+ cells were purified from peripheral blood with or without cytokine mobilization. […] Under appropriate conditions in the absence of […] and BCNU, CD4+ cells can be expanded up to 100 fold over 10 days in culture. Doses tested were 0, 0.2, 0.5, 2, 5, 10, 20, 30, and 40 μM BG and 0, 2, 5, 10, 20, 30, and 40 μM BCNU. A series of three experiments were performed.

HIV = conditions: human, in vivo; cited from earlier work
[1] = system: modified U5-containing crHIV RNA; experiment: In vitro ribozyme cleavage of radiolabeled modified crHIV U5 RNA (PAGE, autoradiography); format: biochemical; conditions: target to ribozyme molar ratio 1:2, 37° C. 5 min
Protocol: (§1) To confirm the resistance to ribozyme cleavage of the crHIV vectors, in vitro transcription was performed. To accomplish this, the ribozyme sequences were cloned into the Xho I site of pBluescript KSII (Stratagene, La Jolla, Calif.). A 0.21 kilobase pair (kb) Bgl II fragment containing the mutated crHIV U5 region similarly was excised from the crHIV vector and inserted into the Bam HI site of pBluescript KSII. The resultant modified pBluescript KSII vectors were linearized with Bss HII prior to in vitro transcription. A similar plasmid expressing wild-type HIV U5 RNA (described in Myers et al. (1994), supra) was employed as a control. It was linearized with Eco RI prior to in vitro transcription.
(§2) Radiolabeled U5 HIV RNA and ribozyme RNA were produced by in vitro transcription of the vectors, as previously described (Dropulic' et al. (1992), supra). The radiolabeled transcripts were incubated together (at a target to ribozyme molar ratio of 1:2) in 1×transcription buffer containing 40 mM Tris-HCl, pH 7.5, 6 mM MgCl2, 2 mM Spermidine, and 10 mM NaCl. The samples were heated to 65° C., and then cooled to 37° C. for 5 min prior to the addition of stop buffer solution containing 95% formamide, 20 mM EDTA, 0.05% Bromophenol Blue, and 0.05% Xylene Cyanol FF. The products' were then resolved by denaturing polyacrylamide gel electrophoresis (PAGE), and detected by autoradiography.

wild-type U5-HIV RNA = experiment: In vitro ribozyme cleavage of radiolabeled wild-type U5 HIV RNA (PAGE, autoradiography); format: biochemical; conditions: target to ribozyme molar ratio 1:2, 37° C. 5 min
Protocol: as §1, §2

Q: Which “dose dependence of CD4 cell killing / toxicity” value (Human CD4+ T cells) does the source give for `Nc1nc(OCc2ccccc2)c2nc[nH]c2n1` [BG, O^6-benzylguanine] here?
A: did not increase cell killing

Q: Which “range virustatic in most patients” value (HIV) does the source give for `Nc1ccn([C@H]2CC[C@@H](CO)O2)c(=O)n1` [ddC] here?
A: 0.005-0.25 mg/kg body weight

Q: Which results are given for `O=NN(CCCl)C(=O)NCCCl` [BCNU, 1,3-bis(2-chloroethyl)-1-nitrosourea]?
A: growth delay of CD4+ cells (Human CD4+ T cells; BCNU alone): did not result in growth delay; dose dependence of CD4 cell killing / toxicity (Human CD4+ T cells): toxicity to CD4 cells increased with the BCNU dose

Q: Which “cleavage of modified U5-containing crHIV RNA” value [1] does the source give for “CACACAACACTGATGAGGCCGAAAGGCCGAAACGGGCACA (expressed or natural sequence) [the +115 ribozyme]” here?
A: cleavage products were not detected

Q: And the “cleavage of wild-type U5-HIV RNA” value (wild-type U5-HIV RNA)?
A: cleavage was readily observed
